Consider one compound from ChEMBL document CHEMBL4414660, “Effect of Modifier Structure on the Activation of Leukotriene A4 Hydrolase Aminopeptidase Activity” (J Med Chem, 2019).

pIC50: −log10 of the molar value.

The target of assay [1] is T1, Leukotriene A-4 hydrolase (Homo sapiens) (UniProt P09960).
T1 sequence (whole entry): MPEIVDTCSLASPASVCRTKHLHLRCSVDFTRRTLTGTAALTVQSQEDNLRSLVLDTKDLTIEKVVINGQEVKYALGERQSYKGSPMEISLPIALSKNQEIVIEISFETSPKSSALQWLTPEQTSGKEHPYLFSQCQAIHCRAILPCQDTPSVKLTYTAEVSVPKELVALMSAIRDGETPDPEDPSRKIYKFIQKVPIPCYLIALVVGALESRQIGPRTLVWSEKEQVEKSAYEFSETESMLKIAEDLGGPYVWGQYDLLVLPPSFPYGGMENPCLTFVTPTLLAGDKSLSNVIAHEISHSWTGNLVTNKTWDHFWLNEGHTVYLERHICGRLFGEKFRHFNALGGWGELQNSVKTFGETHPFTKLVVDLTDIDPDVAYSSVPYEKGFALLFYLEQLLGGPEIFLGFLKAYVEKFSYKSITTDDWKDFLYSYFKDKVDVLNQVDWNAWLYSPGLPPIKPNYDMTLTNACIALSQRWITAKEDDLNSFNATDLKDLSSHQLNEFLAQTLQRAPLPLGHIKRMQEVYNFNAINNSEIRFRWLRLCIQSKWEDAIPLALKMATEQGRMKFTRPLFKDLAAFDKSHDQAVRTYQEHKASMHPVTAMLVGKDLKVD
Briefly: (§1) Inhibition of N-terminal (His)6 and Xpress-tagged LTA4H (unknown origin) expressed in Escherichia coli BL21(DE3) cells assessed as reduction in aminopeptidase activity by measuring p-nitroanilide release using L-arginine-p-nitroanilide incubated for 10 mins by UV plate reader based assay.

The target in assay [2] is T2, Leukotriene A-4 hydrolase (Homo sapiens, UniProt P09960).
T2 sequence (P09960 whole entry): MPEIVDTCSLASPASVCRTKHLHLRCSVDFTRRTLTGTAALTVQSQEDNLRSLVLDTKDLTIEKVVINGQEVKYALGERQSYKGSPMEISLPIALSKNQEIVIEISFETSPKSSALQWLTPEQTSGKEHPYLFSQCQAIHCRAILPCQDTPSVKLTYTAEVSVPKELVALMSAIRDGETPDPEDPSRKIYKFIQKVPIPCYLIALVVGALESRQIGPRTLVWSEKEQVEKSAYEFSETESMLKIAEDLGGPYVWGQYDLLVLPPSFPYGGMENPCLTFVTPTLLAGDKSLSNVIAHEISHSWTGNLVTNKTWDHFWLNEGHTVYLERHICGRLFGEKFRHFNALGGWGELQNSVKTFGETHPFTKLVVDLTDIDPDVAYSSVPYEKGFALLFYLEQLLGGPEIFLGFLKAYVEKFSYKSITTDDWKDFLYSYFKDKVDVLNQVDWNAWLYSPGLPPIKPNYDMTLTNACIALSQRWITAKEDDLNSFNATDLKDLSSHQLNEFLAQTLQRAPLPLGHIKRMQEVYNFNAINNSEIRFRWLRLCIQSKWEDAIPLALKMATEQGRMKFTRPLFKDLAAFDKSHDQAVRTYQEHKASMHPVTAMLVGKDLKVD
The assay is described as §1.

The target in assay [3] is T1, Leukotriene A-4 hydrolase (Homo sapiens). The experiment in a line: Activation of N-terminal (His)6 and Xpress-tagged LTA4H (unknown origin) expressed in Escherichia coli BL21(DE3) cells assessed as increase in aminopeptidase activity by measuring dissociation constant (KX) for hyperbolic mixed predominantly catalytic activation using L-Alanine-p-nitroanilide incubated for 10 mins by p-nitroanilide release detection based UV plate reader based assay.

Assay [4] shares this target. The experiment in a line: Activation of N-terminal (His)6 and Xpress-tagged LTA4H (unknown origin) expressed in Escherichia coli BL21(DE3) cells assessed as increase in aminopeptidase activity by measuring reciprocal allosteric coupling constant for hyperbolic mixed predominantly catalytic activation using L-Alanine-p-nitroanilide incubated for 10 mins by p-nitroanilide release detection based UV plate reader based assay.

Another assay has as its system Neutrophil. The experiment in a line: Inhibition of LTB4 production in A23187-stimulated human neutrophils at 0.001 to 1000 microM incubated for 30 mins by ELISA. In kind it is functional, cell-based.
In assay [5] the target is T2, Leukotriene A-4 hydrolase. Briefly: Activation of N-terminal (His)6 and Xpress-tagged LTA4H (unknown origin) expressed in Escherichia coli BL21(DE3) cells assessed as increase in aminopeptidase activity by measuring p-nitroanilide release using L-Alanine-p-nitroanilide incubated for 10 mins by UV plate reader based assay.
Assay [6] has as its target T1, Leukotriene A-4 hydrolase (Homo sapiens). The experiment in a line: Activation of N-terminal (His)6 and Xpress-tagged LTA4H (unknown origin) expressed in Escherichia coli BL21(DE3) cells assessed as increase in aminopeptidase activity by measuring factor by which activator affects catalytic constant for hyperbolic mixed predominantly catalytic activation using L-Alanine-p-nitroanilide incubated for 10 mins by p-nitroanilide release detection based UV plate reader based assay.

For assay [7] the target is unchanged. Briefly: Inhibition of N-terminal (His)6 and Xpress-tagged LTA4H (unknown origin) expressed in Escherichia coli BL21(DE3) cells assessed as reduction in aminopeptidase activity by measuring PGP hydrolysis incubated for 30 mins.

Take `COc1ccc(Cc2ccc(-c3csc(N)n3)cc2)cc1`: the inhibition result (in assay [1]; in the assay on Neutrophil; in assay [7]) was “Dose-dependent effect” each time. Also, the pIC50 in assay [2] is 4.86. Moreover, the K in assay [3] turned out to be 0.05 µM; in assay [4], 4.34. Also, the AC50 in assay [5] was found to be 0.21 µM. Besides, the fold change (FC) in assay [6] came out at 26.4.
